Test results reported in ChEMBL document CHEMBL2390948, “Stapled peptide-based membrane fusion inhibitors of hepatitis C virus” (Bioorg Med Chem, 2013).
Bridge positions count the residues as written; N and C are the ends. Square brackets hold non-standard residues; d marks the D form. Peptide text beside a SMILES is read from it. R8 = C=CCCCCCC[C@@](C)(N)C(=O)O; S8 = C=CCCCCCC[C@](C)(N)C(=O)O; R5 = C=CCCC[C@@](C)(N)C(=O)O; S5 = C=CCCC[C@](C)(N)C(=O)O

Tests used:
Hepacivirus hominis = assay: Inhibition of HCV envelope glycoprotein E2 interaction to human cell surface protein CD81
Hepatitis C virus [1] = assay: Inhibition of HCV 1b con1 envelope glycoprotein E2 interaction to cell surface protein CD81 in human Huh 7.5.1 cells after 2 days by firefly luciferase based luminescene assay; type: organism-based, Hepacivirus hominis; settings: Con1, Huh-7.5.1, 48 h
[2] = Half life of the compound in presence of chymotrypsin at 20 uM by HPLC analysis; type: physicochemical
[3] = Inhibition of HCV JFH-1 envelope glycoprotein E2 interaction to cell surface protein CD81 in human Huh 7.5.1 cells after 2 days by firefly luciferase based luminescene assay; design: species or system Hepatitis C virus JFH-1
Hepatitis C virus [4] = assay: Antiviral activity against HCV JFH-1 infected in human Huh 7.5.1 cells after 2 days by firefly luciferase reporter gene assay; type: functional, organism-based, Hepacivirus hominis; settings: JFH-1, Huh-7.5.1, 48 h
[5] = Cytotoxicity against human Huh7.5.1 cells at 1000 ug/ml after 48 hrs by WST-1 assay; type: cell-based
Hepatitis C virus [6] = assay: Antiviral activity against HCV at 50 uM; type: functional, Hepacivirus hominis

Compound | INH (Hepacivirus hominis) [µM] | EC50 (Hepatitis C virus [1]) [µM] | half-life at 20 µM [2] [min] | EC50 [3] [µM] | EC50 (Hepatitis C virus [4]) [µM] | Activity [5] | inhibition at 50 µM (Hepatitis C virus [6]) [%]
CCN(CCN(CC)C(=O)c1nc[nH]c1C(=O)N[C@@H](CC(C)C)C(=O)OCc1ccccc1)C(=O)c1nc[nH]c1C(=O)N[C@@H](CC(C)C)C(=O)OCc1ccccc1 | 38 | – | – | – | – | – | –
CCN(CCN(CC)C(=O)c1nc[nH]c1C(=O)N[C@H](C(=O)OCc1ccccc1)C(C)C)C(=O)c1nc[nH]c1C(=O)N[C@H](C(=O)OCc1ccccc1)C(C)C | 53 | – | – | – | – | – | –
CC[C@H](C)[C@H](NC(=O)[C@H](CC(N)=O)NC(=O)[C@H](CO)NC(=O)CNC(=O)[C@H](CO)NC(=O)[C@@H]1CCCN1C(C)=O)C(=O)N[C@H](C(=O)N[C@@]1(C)CCC/C=C\CCC[C@@](C)(C(=O)N[C@@H](CCC(=O)O)C(=O)N[C@@H](CC(=O)O)C(N)=O)NC(=O)[C@H](Cc2ccccc2)NC(=O)[C@H](CC(C)C)NC(=O)[C@H](CC(N)=O)NC1=O)[C@@H](C)CC (Ac-PSGSNII[S5]NLF[S5]ED-NH2; staple (Z) 8-12) | – | 280 | > 200 | 313 | 181 | – | –
CC[C@H](C)[C@@H]1NC(=O)[C@@](C)(NC(=O)[C@H](CC(N)=O)NC(=O)[C@H](CO)NC(=O)CNC(=O)[C@H](CO)NC(=O)[C@@H]2CCCN2C(C)=O)CCC/C=C\CCC[C@@](C)(C(=O)N[C@@H](Cc2ccccc2)C(=O)N[C@@H](CCCCN)C(=O)N[C@@H](CCC(=O)O)C(=O)N[C@@H](CC(=O)O)C(N)=O)NC(=O)[C@H](CC(N)=O)NC(=O)[C@H](CO)NC1=O (Ac-PSGSN[S5]ISN[S5]FKED-NH2; staple (Z) 6-10) | – | 316 | > 200 | 200 | 240 | – | –
CC[C@H](C)[C@@H]1NC(=O)[C@H]([C@@H](C)CC)NC(=O)[C@@](C)(NC(=O)[C@H](CO)NC(=O)CNC(=O)[C@H](CO)NC(=O)[C@@H]2CCCN2C(C)=O)CCCCCC/C=C/CCC[C@@](C)(C(=O)N[C@@H](CCC(=O)O)C(=O)N[C@@H](CC(=O)O)C(N)=O)NC(=O)[C@H](Cc2ccccc2)NC(=O)[C@H](CC(C)C)NC(=O)[C@H](CC(N)=O)NC(=O)[C@H](CO)NC1=O (Ac-PSGS[S8]IISNLF[S5]ED-NH2; staple (E) 5-12) | – | 310 | > 200 | 78 | 357 | – | –
CC[C@H](C)[C@@H]1NC(=O)[C@H](CC(N)=O)NC(=O)[C@@](C)(NC(=O)CNC(=O)[C@H](CO)NC(=O)[C@@H]2CCCN2C(C)=O)CCC/C=C\CCC[C@@](C)(C(=O)N[C@@H](CC(N)=O)C(=O)N[C@@H](CC(C)C)C(=O)N[C@@H](Cc2ccccc2)C(=O)N[C@@H](CCCCN)C(=O)N[C@@H](CCC(=O)O)C(=O)N[C@@H](CC(=O)O)C(N)=O)NC(=O)[C@H]([C@@H](C)CC)NC1=O (Ac-PSG[S5]NII[S5]NLFKED-NH2; staple (Z) 4-8) | – | 164 | > 200 | 21 | 40 | – | –
CC[C@H](C)[C@@H]1NC(=O)[C@H](CC(N)=O)NC(=O)[C@H](CO)NC(=O)[C@](C)(NC(=O)[C@H](CO)NC(=O)[C@@H]2CCCN2C(C)=O)CCCCCC/C=C\CCC[C@](C)(C(=O)N[C@@H](Cc2ccccc2)C(=O)N[C@@H](CCCCN)C(=O)N[C@@H](CCC(=O)O)C(=O)N[C@@H](CC(=O)O)C(N)=O)NC(=O)[C@H](CC(N)=O)NC(=O)[C@H](CO)NC(=O)[C@H]([C@@H](C)CC)NC1=O (Ac-PS[R8]SNIISN[R5]FKED-NH2; staple (Z) 3-10) | – | 35 | > 200 | 17 | 39 | Non-toxic | –
O=C(OCc1ccccc1)c1ccccc1O [BENZYL SALICYLATE] | – | – | – | – | – | – | 25
Ac-PSGSNIISNLFKED-NH2 | – | 320 | 10 | 320 | 244 | Non-toxic | –
